Data on one compound can be found in patent US20070161691A1, “Modified-protein formation inhibitor” (TOKAI UNIVERSITY, priority 2003, published 2007).

The subject of one assay is pentosidine formation. The assay can be described thus: AGEs (pentosidine) formation inhibiting effect in plasma from dialysis patients. Type of assay: biochemical, human. The procedure:
Before dialysis, blood samples were obtained from non-diabetic volunteer dialysis patients with renal failure, and fresh heparinized plasma samples were prepared therefrom Pooled plasma obtained from several patients (n=3˜5) was served to the test. 4-(5-phenyltetrazol-1-ylmethyl)-morpholine (Compound 1), 5-methyl-1-(5-phenyltetrazol-1-ylmethyl)-3a,6a-dihydro-1H-pyrrolo[3,4-d][1,2,3]triazole-4,6-dione (Compound 2) or (5-phenyltetrazol-1-yl)methanol (Compound 3) adjusted to a designed concentration ([…]), in DMSO solution (100 μl), was added to the pooled plasma (900 μl) and incubated at 37° C. for 7 days in the presence of air. Then, the amount of pentosidine was measured to estimate the suppressive effect on the glycation of protein.
Measurement of the amount of pentosidine was made as follows: to each incubated sample (50 μL) was added an equal volume of 10% trichloroacetic acid, followed by centrifugation at 5000 g for 5 minutes; after removal of the supernatant, the pellet was washed by 5% trichloroacetic acid (300 μL); the pellet was dried under reduced pressure and then subjected to hydrolysis in 6N HCI solution (100 μL) at 110° C. under nitrogen atmosphere for 16 hours; to the hydrolysate, 5N NaOH (100 μL) and 0.5 M phosphate buffer (pH 7.4) (200 μL) were added, followed by filtration through a porefilter with a pore size of 0.5 μm and dilution with PBS. The concentration of free pentosidine was determined by reversed-phase HPLC using a fluorescence detector (RF-10A, Shimazu Seisakusho) (Miyata, T. et al.: Proc. Natl. Acad. Sci. USA, 93, 2353-2358, 1996). The effluent was monitored at 335/385 nm of excitation/emission wavelength. Synthetic pentosidine was used as the standard. The detection limit of pentosidine was 0.1 pmol/mg protein.
The inhibiting effect was estimated by comparing with positive control (aminoguanidine and pyridoxamine (Sigma)) reacted in the same manner as 4-(5-phenyltetrazol-1-yl-methyl)-morpholine (Compound 1), 5-methyl-1-(5-phenyltetrazol-1-ylmethyl)-3a,6a-dihydro-1H-pyrrolo[3,4-d][1,2,3]triazole-4,6-dione (Compound 2) and (5-phenyltetrazol-1-yl)methanol (Compound 3).

A short description of assay [1]: Suppressive effect on the hydroxylation of phenylalanine with hydroxy radical. Type of assay: biochemical. The note with it: in comparison with pyridoxamine as positive control; 0.1, 0.5, 2.5 mM. The protocol: Phenylalanine (final concentration: 1 mM), test compound (final concentration: 0.1, 0.5, 2.5 mM), hydrogen peroxide (final concentration: 5 mM) and cupric sulfate (final concentration: 0.1 mM) were dissolved in 200 mM of phosphate buffer (pH7.4) (total volume 500 μL), followed by incubation at 37° C. for 4 hours. Then, DTPA (final concent-ration: 1 mM) and 260 unit of catalase were added thereto to interrupt the reaction. The amounts of o-tyrosine and m-tyrosine formed were determined by HPLC in the following manner: after a designed period of time, the reaction mixture was diluted to 100 folds; 20 μL of the dilution was injected onto HPLC, separation was made with C18 column (4.6×250 mm, 5 μm; Nomura Kagaku) and detection was effected using a fluorescence detector (RF-10A: Shimazu Seisakusho) under the condition of an excitation wavelength of 275 nm and a fluorescence wavelength of 305 nm. In the mobile phase, the flow rate was 0.6mL/min and the concentration of buffer B was varied from 6.5% to 10% in 25 minutes (buffer A: 0.10% trifluoroacetic acid; buffer B: 80% acetonitrile containing 0.08% trifluoroacetic acid).

A short description of assay [2]: Suppressing effect on the nitration of tyrosine with peroxynitrite. Type of assay: biochemical. The note with it: in comparison with pyridoxamine as positive control; 0.1, 0.5, 2.5 and 5 mM. The protocol:
According to the method of Pannala, A.S. et al. (Free Radic. Biol. Med., 24:594-606, 1998), the examination was carried out. Namely, tyrosine (final concentration: 100 μM), the test compound (final concentration: 0.1, 0.5, 2.5 and 5 mM) and peroxynitrite (Dojin Kagaku) (final concentration: 500 μM) were dissolved in 200 mM of phosphate buffer (pH7.4) (liquid volume 500 μL) and incubated at 37° C. for 15 minutes. After incubation, the nitrotyrosine formation was determined with HPLC in the following manner: after a predifined time, the reaction mixture (20 μL) was injected onto HPLC, separation was made with C18 column (4.6×250 mm, 5 μm: Waters) and the detection was effected using a ultraviolet detector (RF-10A: Shimazu Seisakusho) at a wavelength of 280 nm. In the mobile phase, the flow rate was 0.6 mL/min and the concentration of buffer B was varied from 5.0% to 30% in 30 minutes (buffer A: 0.10% trifluoroacetic acid; buffer B: 80% acetonitrile containing 0.08% trifluoroacetic acid). 4-Hydroxy-3-nitrobenzoic acid (100 μM) was used as the internal standard.

As to `c1ccc(-c2nnnn2CN2CCOCC2)cc1` [Compound 1, 4-(5-phenyltetrazol-1-ylmethyl)-morpholine], the “Pentosidine formation” value in the assay with pentosidine formation (5 mM, plasma from dialysis patients, 37° C., 7 days, DMSO negative control 2.960) came to 0.367 nmol/mL. Besides, the “pentosidine formation suppression” value with pentosidine formation (plasma from the patients with dialysis) was “suppressed remarkably”. The “hydroxylation of phenylalanine with hydroxy radical, suppression” value in assay [1] is given as “suppressed remarkably”. Moreover, the “nitrotyrosine formation, suppression” value in assay [2] is recorded as “suppressed remarkably”.
